According to patent US12509431B2, “1,4-dihydroquinazolinone compounds and uses thereof” (Edgewise Therapeutics, Inc., priority 2022, dated 2025):

Legend:
Assay type in all cases: biochemical
Conditions in all cases: Table 8
[1] = target: T1, Porcine Ventricle myofibrils (left ventricle of Yucatan minipigs) (Sus scrofa, UniProt P79293); assay: Myofibril ATPase assay (PK/LDH NADH-coupled), ventricle myofibrils
T1 construct: Myofibrils from porcine cardiac muscle was isolated from the left ventricle of Yucatan minipigs; tissue Exemplar Genetics; host or cells: left ventricle of Yucatan minipigs
T1 sequence (P79293 whole entry): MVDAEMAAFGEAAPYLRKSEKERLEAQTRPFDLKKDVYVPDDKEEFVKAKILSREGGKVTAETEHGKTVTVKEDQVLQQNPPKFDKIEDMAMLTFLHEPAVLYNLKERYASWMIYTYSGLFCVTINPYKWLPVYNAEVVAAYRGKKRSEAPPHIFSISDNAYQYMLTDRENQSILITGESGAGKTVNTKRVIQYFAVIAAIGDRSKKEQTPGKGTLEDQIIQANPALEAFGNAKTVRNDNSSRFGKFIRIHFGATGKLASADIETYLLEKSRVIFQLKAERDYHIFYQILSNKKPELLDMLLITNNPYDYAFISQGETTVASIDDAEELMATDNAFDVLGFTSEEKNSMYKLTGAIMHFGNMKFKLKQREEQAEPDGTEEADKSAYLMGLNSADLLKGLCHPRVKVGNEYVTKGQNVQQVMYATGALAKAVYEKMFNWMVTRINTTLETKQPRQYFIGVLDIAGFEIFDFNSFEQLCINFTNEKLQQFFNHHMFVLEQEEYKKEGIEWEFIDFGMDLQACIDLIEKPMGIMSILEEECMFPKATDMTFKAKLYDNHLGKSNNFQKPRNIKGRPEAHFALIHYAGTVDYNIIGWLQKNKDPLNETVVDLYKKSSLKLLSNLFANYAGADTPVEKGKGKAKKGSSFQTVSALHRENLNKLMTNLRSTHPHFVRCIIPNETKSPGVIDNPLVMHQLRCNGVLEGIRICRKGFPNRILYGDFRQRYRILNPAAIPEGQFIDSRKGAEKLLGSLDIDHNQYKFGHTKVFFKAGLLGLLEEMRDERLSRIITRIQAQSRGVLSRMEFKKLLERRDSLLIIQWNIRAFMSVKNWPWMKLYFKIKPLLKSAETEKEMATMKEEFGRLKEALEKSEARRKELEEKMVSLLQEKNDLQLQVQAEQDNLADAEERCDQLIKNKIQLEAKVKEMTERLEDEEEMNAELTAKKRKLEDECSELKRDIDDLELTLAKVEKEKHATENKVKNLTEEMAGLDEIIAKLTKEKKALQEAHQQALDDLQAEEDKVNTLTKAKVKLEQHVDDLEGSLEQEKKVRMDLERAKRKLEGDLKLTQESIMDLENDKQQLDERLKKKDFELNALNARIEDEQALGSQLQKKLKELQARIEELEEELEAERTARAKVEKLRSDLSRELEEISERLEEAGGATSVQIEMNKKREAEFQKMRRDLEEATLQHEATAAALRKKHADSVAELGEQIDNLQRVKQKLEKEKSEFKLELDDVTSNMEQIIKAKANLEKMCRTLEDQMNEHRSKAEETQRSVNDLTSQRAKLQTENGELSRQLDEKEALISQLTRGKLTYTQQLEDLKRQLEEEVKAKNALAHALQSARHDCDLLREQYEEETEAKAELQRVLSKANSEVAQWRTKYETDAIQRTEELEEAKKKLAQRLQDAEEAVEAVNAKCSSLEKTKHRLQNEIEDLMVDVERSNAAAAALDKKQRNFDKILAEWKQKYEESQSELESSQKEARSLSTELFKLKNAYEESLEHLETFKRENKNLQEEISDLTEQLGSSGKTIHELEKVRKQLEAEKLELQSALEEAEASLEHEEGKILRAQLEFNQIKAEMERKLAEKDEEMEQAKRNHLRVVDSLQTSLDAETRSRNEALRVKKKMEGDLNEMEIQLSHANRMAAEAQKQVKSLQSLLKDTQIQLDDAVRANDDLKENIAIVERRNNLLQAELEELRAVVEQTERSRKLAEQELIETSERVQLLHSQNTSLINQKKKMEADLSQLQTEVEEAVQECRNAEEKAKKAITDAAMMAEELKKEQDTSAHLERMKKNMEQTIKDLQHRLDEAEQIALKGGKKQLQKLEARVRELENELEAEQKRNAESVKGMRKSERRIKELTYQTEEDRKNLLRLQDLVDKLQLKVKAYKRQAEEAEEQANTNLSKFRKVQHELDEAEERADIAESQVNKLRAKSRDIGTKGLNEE
Procedure: (§1) Myofibril ATPase assays are known in the art to be useful in evaluating small molecules for the treatment of HCM and other cardiac indications. Myosin ATPase activity is assessed by using a coupled reaction system, in which ADP generated by the myosin ATPase function is coupled to the disappearance of NADH through the pyruvate kinase/lactate dehydrogenase (PK-LDH) system. ATPase activity produces ADP, which is used as a substrate for PK to produce pyruvate and regenerate ATP. The pyruvate is then used as a substrate by LDH to oxidize NADH to NAD+. The rate of the reaction is monitored through the time-dependent disappearance of NADH using absorbance at 340 nm, which, when the couple system is in stoichiometric excess, is directly correlated to the ATPase activity of the myosin. Inhibition of ATPase activity by the assayed compounds is indicated by a reduced rate of NADH loss, relative to vehicle-treated controls, over the experimental time window. Rabbit Skeletal and Porcine Ventricle are the primary sources of myofibril material.
(§2) Materials: The following stock solutions and reagents were used in the Myofibril ATPase Assay:
(§3) Stock Solutions of pCa buffer. Combine PIPES, CaCl2), and EGTA solutions with water. Adjust pH to 7.0 and bring final volume to 100 mL.
(§4) Buffer A & Buffer B. Prepare buffers A and B according to the table below.
(§5) Myofibril ATPase Assay Procedure: BSA, ATP, NADH, PEP, and DTT solutions were thawed at room temperature, then transferred to ice. Pellet-frozen myofibrils were transferred with approximately twice the required volume into a sufficiently large tube and capped. Myofibrils were thawed by rolling in a water bath for approximately 15 min at room temperature and cooled on ice. Buffers A and B were prepared by adjusting volumes as necessary for required number of wells and stored on ice. 0.5 μL of the compounds to be assayed were added into wells. 25 μL of Buffer A was dispensed into the wells, followed by 25 μL of Buffer B. The wells were measured for absorbance at 340 nm, using a kinetic protocol in which the wells are read every 1.5-2 min for 75 min. Assay data analysis was performed using a python script that filtered the raw data to retain those points falling between a starting and ending time and between a maximum and minimum absorbance, then used the filtered time-domain 340 nm absorbance data in each well to calculate a slope via linear regression analysis in units of mAU/min. Compound slopes were normalized between 100% and 0% activity, where 100% represented the slope of wells containing only compound vehicle, and fit to a 4-parameter logistic model. In addition to the fit parameters, the EC25% is calculated, relative to the 100% normalized value. In the case of inhibitors, EC50% is also calculated, if available. Fit parameters, calculated effective concentrations, filtered raw data, and calculated slopes were exported, in addition to compound-specific graphs of normalized ATPase activity versus concentration in μM.
Cardiac Myofibril Isolation:
Myofibrils from porcine cardiac muscle was isolated from the left ventricle of Yucatan minipigs. Myofibrils were prepared using a method based upon those described in Herrmann et al. (1993) and summarized here. Minced tissue was homogenized for 50 sec with a Polytron homogenizer into 10 volumes (relative to weight in grams) of Isolation Buffer A (75 mM KCl, 10 mM Imidazole, 2 mM MgCl2, 2 mM EGTA, 1 mM NaN3, 1% v/v Triton X-100) supplemented with 4 mM Phosphocreatine, 1 mM ATP, 50 mM BDM, 1 mM DTT, 1 mM Benzamide HCl, 0.1 mM PMSF, 10 μM leupeptin, 5 μM pepstatin, and 10 mM EDTA. The myofibrils were recovered by centrifugation (Beckman Allegra 6R, 1200 g, 15 min) and resuspended in 10 volumes Isolation Buffer B (Buffer A above without supplemental reagents). The myofibrils were further homogenized described above and recovered by centrifugation for 7 mins. Cellular membranes and debris were removed by 3 washes in Isolation Buffer B, centrifuging each as before. […]

[2] = system: Rabbit Skeletal myofibrils (rabbit psoas muscle); assay: Myofibril ATPase assay (PK/LDH NADH-coupled), skeletal myofibrils
Procedure: as §1, §2, §3, §4, §5
Skeletal Myofibril Isolation:
Myofibrils from various animals and tissue types were acquired from a variety of sources: rabbit psoas muscle was purchased from Pel-Freez Biologicals (Rogers, AR) and porcine cardiac muscle was purchased from Exemplar Genetics. All myofibrils were prepared using a method based upon those described in Herrmann et al. (1993) and summarized here. Minced tissue was homogenized for 50 sec with a Polytron homogenizer into 10 volumes (relative to weight in grams) of Isolation Buffer A (50 mM Tris, pH 8.0, 0.1 M potassium acetate, 5 mM KCl, 2 mM DTT, 5 mM EDTA, 0.5% v/v Triton X-100) supplemented with 0.1 mM PMSF, 10 μM leupeptin, 5 μM pepstatin, and 0.5 mM sodium azide. The myofibrils were recovered by centrifugation (Beckman Allegra 6R, 1200 g, 10 min) and resuspended in 10 volumes Isolation Buffer B (Buffer A above without protease inhibitors or sodium azide). The myofibrils were further homogenized as before and recovered by centrifugation. […]

[3] = system: Porcine Atria myofibrils; assay: Myofibril ATPase assay (PK/LDH NADH-coupled), atria myofibrils
Procedure: as §5

Compound	Porcine Ventricle IC25 [1] [µM]	Rabbit Psoas IC25 [2] [µM]	Porcine Atria IC25 [3] [µM]
O=C(CN1Cc2c(ccc(F)c2F)NC1=O)N[C@H]1CCc2cc(F)cnc21 (single isomer, unassigned) [Compound B351]	100.00	100.00	100.00
Cc1nc([C@@H](C)NC(=O)CN2Cc3c(ccc(F)c3F)NC2=O)ncc1C#N (single isomer, unassigned) [Compound B352]	2.36	4.45	0.61
Cc1nc(C#N)ncc1[C@@H](C)NC(=O)CN1Cc2c(ccc(F)c2F)NC1=O [Compound B1]	0.0599	0.0201	0.09
Cc1nc(C#N)ncc1[C@H](C)NC(=O)CN1Cc2c(ccc(F)c2F)NC1=O [Compound B2]	7.734	5.739	0.96
Cc1nsc([C@H](C)NC(=O)CN2Cc3c(ccc(F)c3F)NC2=O)n1 [Compound B3]	52.51	100	34.81
N#Cc1cnc2c(c1)COC[C@H]2NC(=O)CN1Cc2c(ccc(F)c2F)NC1=O [Compound B4]	0.1161	0.1318	0.07
N#Cc1cnc2c(c1)COC[C@@H]2NC(=O)CN1Cc2c(ccc(F)c2F)NC1=O [Compound B5]	100	4.565	100.00
O=C(CN1Cc2c(ccc(F)c2F)NC1=O)N[C@@H]1COc2cc(F)cnc21 [Compound B6]	0.1483	0.1232	0.07
O=C(CN1Cc2c(ccc(F)c2F)NC1=O)N[C@H]1COc2cc(F)cnc21 [Compound B7]	2.786	29.14	0.45
Cc1cc(C#N)cnc1[C@@H](C)NC(=O)CN1Cc2c(ccc(F)c2F)NC1=O [Compound B8]	0.6039	1.018	0.43
Cc1cc(C#N)cnc1[C@H](C)NC(=O)CN1Cc2c(ccc(F)c2F)NC1=O [Compound B9]	0.0379	0.0224	0.04
C[C@@H](NC(=O)CN1Cc2c(F)cc(C#N)cc2NC1=O)c1ccc(C#N)cc1F [Compound B10]	8.204	29.08	100.00
C[C@H](NC(=O)CN1Cc2c(F)cc(C#N)cc2NC1=O)c1ccc(C#N)cc1F [Compound B11, N-[(1S)-1-(4-Cyano-2-fluorophenyl)ethyl]-2-(7-cyano-5-fluoro-2-oxo-1,4-dihydroquinazolin-3-yl)acetamide]	100	49.64	100.00
Cc1cc(F)c2c(c1)NC(=O)N(CC(=O)N[C@H](C)c1ccc(C#N)cc1F)C2 [Compound B12]	0.143	0.7606	0.88
Cc1cc(F)c2c(c1)NC(=O)N(CC(=O)N[C@@H](C)c1ccc(C#N)cc1F)C2 [Compound B13, N-[(1S)-1-(4-Cyano-2-fluorophenyl)ethyl]-2-(5-fluoro-7-methyl-2-oxo-1,4-dihydroquinazolin-3-yl)acetamide]	0.086	0.0132	0.06
CCc1cc(F)cnc1[C@@H](C)NC(=O)CN1Cc2c(ccc(F)c2F)NC1=O [Compound B14]	0.0844	0.0934	0.15
CCc1cc(F)cnc1[C@H](C)NC(=O)CN1Cc2c(ccc(F)c2F)NC1=O [Compound B15]	100	100	100.00
C[C@@H](NC(=O)CN1Cc2c(ccc(F)c2F)NC1=O)c1ccc(C#N)nn1 [Compound B16]	1.057	1.205	0.23
O=C(CN1Cc2c(ccc(F)c2F)NC1=O)N[C@@H]1CS(=O)(=O)c2cc(F)cc(F)c21 [Compound B18]	100	100	2.25
O=C(CN1Cc2c(ccc(F)c2F)NC1=O)N[C@H]1CS(=O)(=O)c2cc(F)cc(F)c21 [Compound B19]	100	100	100.00
CC(C)c1cc(F)cnc1[C@@H](C)NC(=O)CN1Cc2c(ccc(F)c2F)NC1=O [Compound B20]	100	100	100.00
CC(C)c1cc(F)cnc1[C@H](C)NC(=O)CN1Cc2c(ccc(F)c2F)NC1=O [Compound B21]	100	100	100.00
Cc1cc(C#N)nnc1[C@@H](C)NC(=O)CN1Cc2c(ccc(F)c2F)NC1=O [Compound B22]	6.451	0.9012	10.83
Cc1ccnnc1[C@@H](C)NC(=O)CN1Cc2c(ccc(F)c2F)NC1=O [Compound B24]	100	30.61	100.00
C[C@@H](NC(=O)CN1Cc2cc(F)cc(C#N)c2NC1=O)c1ccc(C#N)cc1F [Compound B26]	100	100	100.00
C[C@H](NC(=O)CN1Cc2cc(F)cc(C#N)c2NC1=O)c1ccc(C#N)cc1F [Compound B27]	15.59	0.5422	2.10
C[C@@H](NC(=O)CN1Cc2cc(F)cc(F)c2NC1=O)c1ccc(C#N)cc1F [Compound B28]	100	100	6.24
C[C@H](NC(=O)CN1Cc2cc(F)cc(F)c2NC1=O)c1ccc(C#N)cc1F [Compound B29]	0.6824	0.1245	0.11
Cc1ccc2c(c1F)CN(CC(=O)N[C@H](C)c1ccc(C#N)cc1F)C(=O)N2 [Compound B30]	100	100	0.07
